One block for each compound: values may come before it.
Key:
[1] = biological target: Acetylcholinesterase (Homo sapiens, UniProt P22303); format: functional
[2] = biological target: Epidermal growth factor receptor (Homo sapiens, UniProt P00533); format: functional
[3] = biological target: Growth hormone secretagogue receptor type 1 (Homo sapiens, UniProt Q92847)
[4] = biological target: T1, Thromboxane A2 receptor (Homo sapiens, UniProt P21731); format: functional, cell-based
T1 sequence (P21731 whole entry): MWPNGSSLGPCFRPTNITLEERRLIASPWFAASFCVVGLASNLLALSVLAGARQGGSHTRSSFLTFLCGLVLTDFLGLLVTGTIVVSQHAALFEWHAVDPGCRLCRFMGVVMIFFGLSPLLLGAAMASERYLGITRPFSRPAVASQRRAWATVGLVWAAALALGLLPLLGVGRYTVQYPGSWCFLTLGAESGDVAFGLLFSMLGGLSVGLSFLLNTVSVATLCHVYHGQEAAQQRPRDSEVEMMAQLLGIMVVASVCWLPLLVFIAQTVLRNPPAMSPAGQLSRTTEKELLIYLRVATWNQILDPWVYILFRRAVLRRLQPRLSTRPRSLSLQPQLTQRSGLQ

[5] = biological target: Beta-1 adrenergic receptor (Homo sapiens, UniProt P08588); format: functional
[6] = biological target: Beta-2 adrenergic receptor (Homo sapiens, UniProt P07550)
[7] = biological target: Glutamate receptor ionotropic, NMDA 1 (Rattus norvegicus, UniProt P35439)
[8] = biological target: Voltage-dependent L-type calcium channel subunit alpha-1C (Rattus norvegicus, UniProt P22002); format: functional
Voltage-dependent L-type calcium channel subunit alpha-1C (Rattus norvegicus, UniProt P22002), sequence (P22002 whole entry): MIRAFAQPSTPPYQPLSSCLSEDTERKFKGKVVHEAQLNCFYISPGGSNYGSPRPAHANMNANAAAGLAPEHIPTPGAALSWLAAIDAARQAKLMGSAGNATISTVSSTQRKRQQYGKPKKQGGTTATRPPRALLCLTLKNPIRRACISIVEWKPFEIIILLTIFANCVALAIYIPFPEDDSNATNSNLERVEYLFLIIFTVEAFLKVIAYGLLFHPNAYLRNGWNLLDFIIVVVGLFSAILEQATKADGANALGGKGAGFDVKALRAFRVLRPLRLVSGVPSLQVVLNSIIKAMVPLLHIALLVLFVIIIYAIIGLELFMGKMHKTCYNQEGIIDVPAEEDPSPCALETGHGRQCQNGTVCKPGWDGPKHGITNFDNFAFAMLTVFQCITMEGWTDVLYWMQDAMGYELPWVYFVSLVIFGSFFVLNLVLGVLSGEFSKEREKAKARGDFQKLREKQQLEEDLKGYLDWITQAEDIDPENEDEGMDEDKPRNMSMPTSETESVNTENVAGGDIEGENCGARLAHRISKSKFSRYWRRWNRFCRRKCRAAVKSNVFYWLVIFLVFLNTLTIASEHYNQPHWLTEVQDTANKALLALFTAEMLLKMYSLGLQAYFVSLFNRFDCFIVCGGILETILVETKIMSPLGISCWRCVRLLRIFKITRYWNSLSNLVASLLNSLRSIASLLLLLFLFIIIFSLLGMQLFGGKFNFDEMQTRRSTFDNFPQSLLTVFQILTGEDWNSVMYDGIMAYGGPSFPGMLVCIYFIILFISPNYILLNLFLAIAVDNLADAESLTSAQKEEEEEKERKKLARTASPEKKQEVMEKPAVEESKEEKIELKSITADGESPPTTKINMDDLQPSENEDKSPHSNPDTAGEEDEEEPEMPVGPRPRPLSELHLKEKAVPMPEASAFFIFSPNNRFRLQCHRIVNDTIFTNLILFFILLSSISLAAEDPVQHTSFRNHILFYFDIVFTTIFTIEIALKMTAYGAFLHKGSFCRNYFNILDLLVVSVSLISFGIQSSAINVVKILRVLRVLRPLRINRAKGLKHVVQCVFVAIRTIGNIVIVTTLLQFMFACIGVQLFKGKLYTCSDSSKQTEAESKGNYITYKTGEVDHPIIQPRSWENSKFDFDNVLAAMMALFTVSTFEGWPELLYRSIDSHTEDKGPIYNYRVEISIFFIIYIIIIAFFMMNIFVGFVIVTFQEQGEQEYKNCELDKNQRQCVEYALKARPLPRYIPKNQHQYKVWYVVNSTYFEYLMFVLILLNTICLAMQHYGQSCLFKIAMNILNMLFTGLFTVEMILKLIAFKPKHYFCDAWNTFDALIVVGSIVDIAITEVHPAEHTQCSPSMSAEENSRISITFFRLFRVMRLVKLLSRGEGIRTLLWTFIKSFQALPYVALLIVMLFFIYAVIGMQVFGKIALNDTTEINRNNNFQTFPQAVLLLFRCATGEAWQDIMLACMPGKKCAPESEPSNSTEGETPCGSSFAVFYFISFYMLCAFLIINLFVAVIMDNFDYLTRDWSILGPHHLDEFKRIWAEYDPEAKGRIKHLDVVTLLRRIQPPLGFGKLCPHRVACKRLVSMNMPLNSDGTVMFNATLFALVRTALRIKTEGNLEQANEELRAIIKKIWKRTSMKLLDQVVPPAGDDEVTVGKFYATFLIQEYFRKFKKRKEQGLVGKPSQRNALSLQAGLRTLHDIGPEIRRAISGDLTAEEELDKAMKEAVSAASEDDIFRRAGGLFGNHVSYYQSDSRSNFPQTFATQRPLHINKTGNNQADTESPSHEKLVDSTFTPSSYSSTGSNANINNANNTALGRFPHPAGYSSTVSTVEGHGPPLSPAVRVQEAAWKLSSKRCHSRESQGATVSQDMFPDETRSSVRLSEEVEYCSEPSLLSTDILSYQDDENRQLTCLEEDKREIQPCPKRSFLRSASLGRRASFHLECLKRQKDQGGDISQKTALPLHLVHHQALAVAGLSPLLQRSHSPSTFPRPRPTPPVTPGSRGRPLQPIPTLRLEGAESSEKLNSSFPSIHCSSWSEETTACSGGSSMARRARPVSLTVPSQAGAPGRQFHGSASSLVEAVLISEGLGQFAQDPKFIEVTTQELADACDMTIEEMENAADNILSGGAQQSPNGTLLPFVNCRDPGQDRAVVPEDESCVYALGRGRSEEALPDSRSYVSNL

[9] = biological target: T2, Alpha-1A adrenergic receptor (Homo sapiens, UniProt P35348)
T2 sequence (P35348 whole entry): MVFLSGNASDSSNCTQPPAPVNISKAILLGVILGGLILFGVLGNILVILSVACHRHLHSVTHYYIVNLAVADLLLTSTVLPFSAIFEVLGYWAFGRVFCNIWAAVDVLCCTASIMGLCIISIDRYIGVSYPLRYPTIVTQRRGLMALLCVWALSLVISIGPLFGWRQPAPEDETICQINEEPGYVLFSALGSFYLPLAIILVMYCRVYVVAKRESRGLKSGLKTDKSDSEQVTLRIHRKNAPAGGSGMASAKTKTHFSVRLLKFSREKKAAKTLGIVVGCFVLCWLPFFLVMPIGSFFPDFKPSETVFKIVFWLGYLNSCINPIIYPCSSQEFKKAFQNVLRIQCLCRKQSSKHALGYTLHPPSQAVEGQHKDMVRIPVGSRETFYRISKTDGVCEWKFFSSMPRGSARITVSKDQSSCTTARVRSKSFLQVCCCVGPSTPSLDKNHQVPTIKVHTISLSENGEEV

[10] = biological target: T3, Androgen receptor (Homo sapiens, UniProt P10275)
T3 sequence (P10275 whole entry): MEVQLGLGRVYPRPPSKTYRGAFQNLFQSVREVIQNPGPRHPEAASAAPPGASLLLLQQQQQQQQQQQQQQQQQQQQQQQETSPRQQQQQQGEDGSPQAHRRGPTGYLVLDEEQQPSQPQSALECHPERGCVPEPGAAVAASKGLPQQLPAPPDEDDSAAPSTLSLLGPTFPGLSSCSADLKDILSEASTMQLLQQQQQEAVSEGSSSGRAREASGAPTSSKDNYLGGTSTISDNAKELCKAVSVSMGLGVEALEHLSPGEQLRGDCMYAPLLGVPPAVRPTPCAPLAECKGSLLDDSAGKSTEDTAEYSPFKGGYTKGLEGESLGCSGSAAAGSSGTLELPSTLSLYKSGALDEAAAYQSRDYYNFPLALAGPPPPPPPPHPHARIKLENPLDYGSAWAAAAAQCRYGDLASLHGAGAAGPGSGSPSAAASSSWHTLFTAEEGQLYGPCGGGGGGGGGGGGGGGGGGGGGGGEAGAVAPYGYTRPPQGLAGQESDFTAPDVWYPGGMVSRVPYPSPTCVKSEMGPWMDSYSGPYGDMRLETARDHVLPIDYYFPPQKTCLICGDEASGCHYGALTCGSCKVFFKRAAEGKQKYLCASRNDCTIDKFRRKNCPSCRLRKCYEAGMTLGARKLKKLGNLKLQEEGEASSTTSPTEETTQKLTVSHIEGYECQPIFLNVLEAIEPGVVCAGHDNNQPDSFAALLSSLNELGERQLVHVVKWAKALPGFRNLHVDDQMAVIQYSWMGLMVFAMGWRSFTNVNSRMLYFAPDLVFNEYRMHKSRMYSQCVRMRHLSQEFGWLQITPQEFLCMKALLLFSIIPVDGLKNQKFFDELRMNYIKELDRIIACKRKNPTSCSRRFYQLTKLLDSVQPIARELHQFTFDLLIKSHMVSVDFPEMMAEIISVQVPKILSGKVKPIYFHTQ

[11] = biological target: T4, Amine oxidase [flavin-containing] A (Homo sapiens, UniProt P21397); format: functional
T4 sequence (P21397 whole entry): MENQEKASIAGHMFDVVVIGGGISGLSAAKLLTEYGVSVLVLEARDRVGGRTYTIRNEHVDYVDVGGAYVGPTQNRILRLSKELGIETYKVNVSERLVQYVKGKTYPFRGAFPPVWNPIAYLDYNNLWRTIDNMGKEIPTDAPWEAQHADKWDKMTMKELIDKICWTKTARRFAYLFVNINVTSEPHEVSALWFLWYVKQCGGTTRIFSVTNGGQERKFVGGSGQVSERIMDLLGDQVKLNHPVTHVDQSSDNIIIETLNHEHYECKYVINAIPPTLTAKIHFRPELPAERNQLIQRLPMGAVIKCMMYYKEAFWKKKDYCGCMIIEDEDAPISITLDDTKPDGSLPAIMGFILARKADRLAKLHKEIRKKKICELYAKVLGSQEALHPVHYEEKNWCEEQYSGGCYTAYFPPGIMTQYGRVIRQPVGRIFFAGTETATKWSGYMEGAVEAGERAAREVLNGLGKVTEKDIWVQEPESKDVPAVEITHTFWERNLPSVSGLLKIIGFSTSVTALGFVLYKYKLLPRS

[12] = biological target: T5, Alpha-2A adrenergic receptor (Homo sapiens, UniProt P08913)
T5 sequence (P08913 whole entry): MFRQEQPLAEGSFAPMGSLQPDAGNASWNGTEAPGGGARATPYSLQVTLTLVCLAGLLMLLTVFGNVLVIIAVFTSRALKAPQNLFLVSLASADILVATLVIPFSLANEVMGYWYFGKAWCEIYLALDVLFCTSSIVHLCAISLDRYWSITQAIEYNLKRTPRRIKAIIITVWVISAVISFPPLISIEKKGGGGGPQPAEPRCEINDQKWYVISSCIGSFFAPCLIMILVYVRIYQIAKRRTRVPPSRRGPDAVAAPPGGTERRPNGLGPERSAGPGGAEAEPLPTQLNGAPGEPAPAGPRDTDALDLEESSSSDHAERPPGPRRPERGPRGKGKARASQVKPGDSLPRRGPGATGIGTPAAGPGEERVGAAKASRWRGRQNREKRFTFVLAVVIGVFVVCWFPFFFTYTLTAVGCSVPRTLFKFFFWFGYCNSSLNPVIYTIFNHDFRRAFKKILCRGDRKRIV

[13] = biological target: T2, Alpha-1A adrenergic receptor; format: functional, cell-based
[14] = biological target: Voltage-dependent L-type calcium channel subunit alpha-1C (Homo sapiens, UniProt Q13936); format: functional, cell-based
[15] = biological target: Histamine H3 receptor (Homo sapiens, UniProt Q9Y5N1)
[16] = biological target: T2, Alpha-1A adrenergic receptor; format: functional, cell-based; remark: listed apart in the source
[17] = biological target: Delta-type opioid receptor (Homo sapiens, UniProt P41143)
Delta-type opioid receptor, sequence (P41143 whole entry): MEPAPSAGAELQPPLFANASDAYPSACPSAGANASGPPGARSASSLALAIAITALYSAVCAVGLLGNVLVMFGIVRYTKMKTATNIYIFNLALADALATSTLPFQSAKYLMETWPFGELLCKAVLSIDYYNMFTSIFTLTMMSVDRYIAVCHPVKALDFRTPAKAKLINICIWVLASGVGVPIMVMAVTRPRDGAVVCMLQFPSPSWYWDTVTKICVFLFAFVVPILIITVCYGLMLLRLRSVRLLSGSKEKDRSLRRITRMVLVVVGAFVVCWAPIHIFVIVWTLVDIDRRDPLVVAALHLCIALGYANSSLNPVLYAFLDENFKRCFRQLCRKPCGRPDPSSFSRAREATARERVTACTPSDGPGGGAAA

[18] = biological target: T6, Mu-type opioid receptor (Homo sapiens, UniProt P35372); assay: biochemical; format: functional
T6 sequence (P35372 whole entry): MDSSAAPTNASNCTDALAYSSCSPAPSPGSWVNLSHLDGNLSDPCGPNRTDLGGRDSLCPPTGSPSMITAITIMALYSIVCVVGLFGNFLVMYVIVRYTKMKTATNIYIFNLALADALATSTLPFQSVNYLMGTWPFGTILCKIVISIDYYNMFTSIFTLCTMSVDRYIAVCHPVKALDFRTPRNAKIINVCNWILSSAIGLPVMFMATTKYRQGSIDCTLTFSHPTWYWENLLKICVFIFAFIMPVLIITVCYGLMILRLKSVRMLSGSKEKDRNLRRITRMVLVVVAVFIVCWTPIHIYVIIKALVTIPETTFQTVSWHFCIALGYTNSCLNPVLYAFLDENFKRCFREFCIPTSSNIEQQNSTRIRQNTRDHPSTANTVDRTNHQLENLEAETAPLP

[19] = biological target: T6, Mu-type opioid receptor
[20] = biological target: T7, Gamma-aminobutyric acid receptor subunit alpha-1 (Rattus norvegicus, UniProt P62813)
T7 sequence (P62813 whole entry): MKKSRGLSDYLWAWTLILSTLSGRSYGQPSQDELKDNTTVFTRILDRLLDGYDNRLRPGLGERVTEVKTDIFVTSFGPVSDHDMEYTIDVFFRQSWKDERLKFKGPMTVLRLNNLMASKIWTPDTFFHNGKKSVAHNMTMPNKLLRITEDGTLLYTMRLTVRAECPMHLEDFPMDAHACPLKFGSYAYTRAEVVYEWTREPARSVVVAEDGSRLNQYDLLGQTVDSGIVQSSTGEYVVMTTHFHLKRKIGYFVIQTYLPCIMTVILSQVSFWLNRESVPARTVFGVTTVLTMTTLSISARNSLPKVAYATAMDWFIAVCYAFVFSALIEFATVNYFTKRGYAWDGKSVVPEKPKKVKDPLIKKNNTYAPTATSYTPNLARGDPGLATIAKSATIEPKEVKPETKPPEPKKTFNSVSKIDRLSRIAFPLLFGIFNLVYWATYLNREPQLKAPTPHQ

[21] = biological target: Sodium-dependent noradrenaline transporter (Homo sapiens, UniProt P23975)
[22] = biological target: T7, Gamma-aminobutyric acid receptor subunit alpha-1; format: functional
[23] = biological target: Kappa-type opioid receptor (Homo sapiens, UniProt P41145)
Kappa-type opioid receptor, sequence (P41145 whole entry): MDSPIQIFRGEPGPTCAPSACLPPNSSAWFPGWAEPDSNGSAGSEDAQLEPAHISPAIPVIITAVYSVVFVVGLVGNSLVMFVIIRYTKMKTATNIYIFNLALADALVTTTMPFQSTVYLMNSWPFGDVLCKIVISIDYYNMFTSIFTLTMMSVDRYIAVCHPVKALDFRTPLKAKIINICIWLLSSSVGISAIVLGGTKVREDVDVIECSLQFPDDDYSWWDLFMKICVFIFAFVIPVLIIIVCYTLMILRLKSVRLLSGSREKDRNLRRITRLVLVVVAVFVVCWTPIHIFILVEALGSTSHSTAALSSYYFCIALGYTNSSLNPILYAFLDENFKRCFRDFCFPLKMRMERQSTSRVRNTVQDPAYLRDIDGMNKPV

[24] = biological target: Voltage-gated inwardly rectifying potassium channel KCNH2 (Homo sapiens, UniProt Q12809); format: functional
[25] = biological target: Neuronal acetylcholine receptor subunit alpha-4 (Homo sapiens, UniProt P43681)
Further: assay procedure not described here.

Acetylcholinesterase, sequence (P22303 whole entry): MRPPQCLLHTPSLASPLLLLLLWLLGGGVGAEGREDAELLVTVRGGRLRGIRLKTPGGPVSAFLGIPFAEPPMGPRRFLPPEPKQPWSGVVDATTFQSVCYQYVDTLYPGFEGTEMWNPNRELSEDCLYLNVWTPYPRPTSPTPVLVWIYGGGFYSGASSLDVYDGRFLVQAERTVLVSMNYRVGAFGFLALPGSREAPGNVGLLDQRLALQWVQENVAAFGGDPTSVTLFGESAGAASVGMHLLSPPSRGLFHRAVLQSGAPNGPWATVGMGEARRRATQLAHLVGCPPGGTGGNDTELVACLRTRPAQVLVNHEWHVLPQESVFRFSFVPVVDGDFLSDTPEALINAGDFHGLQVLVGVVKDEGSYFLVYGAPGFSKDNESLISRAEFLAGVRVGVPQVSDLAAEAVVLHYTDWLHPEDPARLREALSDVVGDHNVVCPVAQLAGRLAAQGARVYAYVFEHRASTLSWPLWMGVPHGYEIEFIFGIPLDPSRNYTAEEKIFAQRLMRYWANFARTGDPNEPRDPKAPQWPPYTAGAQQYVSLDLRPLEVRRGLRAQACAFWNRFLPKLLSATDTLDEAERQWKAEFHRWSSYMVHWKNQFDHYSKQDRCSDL
Growth hormone secretagogue receptor type 1, sequence (Q92847 whole entry): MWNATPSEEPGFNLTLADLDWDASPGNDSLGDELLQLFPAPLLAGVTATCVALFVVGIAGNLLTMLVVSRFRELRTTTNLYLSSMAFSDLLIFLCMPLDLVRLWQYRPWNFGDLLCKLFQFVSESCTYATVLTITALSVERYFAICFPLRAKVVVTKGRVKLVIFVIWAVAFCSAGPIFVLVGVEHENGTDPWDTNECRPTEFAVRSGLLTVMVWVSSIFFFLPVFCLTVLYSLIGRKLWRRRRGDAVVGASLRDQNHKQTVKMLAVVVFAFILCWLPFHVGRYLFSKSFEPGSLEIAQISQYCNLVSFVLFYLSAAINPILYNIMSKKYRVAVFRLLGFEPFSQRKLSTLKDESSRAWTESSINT

SMILES: N=C(N)c1ccc(OCCCCCOc2ccc(C(=N)N)cc2)cc1 [PENTAMIDINE]
AC50 [1]: 7.28 µM

AC50 [2]: > 30 µM
AC50 [3]: > 30 µM
SMILES: O=C(O)Cc1cc(I)c(Oc2ccc(O)c(I)c2)c(I)c1 [TIRATRICOL]

SMILES: CCCCC[C@H](O)/C=C/[C@@H]1[C@@H](C/C=C\CCCC(=O)O)[C@@H](O)C[C@H]1O [DINOPROST]
AC50 [4]: 2.76 µM

AC50 [5]: > 10 µM
AC50 [6]: > 10 µM
AC50 [7]: > 10 µM
AC50 [8]: > 10 µM
AC50 [9]: > 10 µM
SMILES: CCc1cc(C(N)=S)ccn1 [ETHIONAMIDE]

SMILES: c1ccc(C2(c3ccccc3)CC2C2=NCCN2)cc1 (centres undefined) [CIFENLINE]
AC50 [10]: 22.6 µM
AC50 [11]: > 30 µM
AC50 [12]: > 30 µM
AC50 [1]: > 30 µM
AC50 [13]: > 30 µM
AC50 [14]: > 50 µM
AC50 [15]: > 30 µM
AC50 [16]: > 30 µM

SMILES: CC(C)Oc1ccc2c(=O)c(-c3ccccc3)coc2c1 [IPRIFLAVONE]
AC50 [1]: > 30 µM

SMILES: CSCC[C@H](NC(=O)[C@H](Cc1c[nH]c2ccccc12)NC(=O)CCNC(=O)OC(C)(C)C)C(=O)N[C@@H](CC(=O)O)C(=O)N[C@@H](Cc1ccccc1)C(N)=O [PENTAGASTRIN]
AC50 [17]: > 30 µM
AC50 [18]: > 30 µM
AC50 [19]: > 30 µM
AC50 [20]: > 10 µM
AC50 [7]: > 10 µM
AC50 [21]: > 10 µM
AC50 [22]: > 10 µM
AC50 [23]: > 10 µM
AC50 [8]: > 10 µM
AC50 [24]: > 30 µM
AC50 [25]: > 10 µM
